# Assay results taken from patent US20150150769A1, “COSMETIC COMPOSITIONS COMPRISING DITERPENOIC ACIDS, E.G. GIBBERELLIC ACIDS” (Cutech S.r.L., priority 2011, published 2015).
# How the values were obtained:
# [1] = tested on: Human anagen hair follicles; test: Histological analysis of hair follicles (anagen/catagen stage, dermopapilla morphology); format: cell-based; settings: for Anagen phase / Catagen phase: after 9 days of cultivation
# Experimental: (§1) Human anagen hair follicles were isolated from scalp skin taken from a single donor and transferred for cultivation in sterile 24 well plates using a modified Williams' Medium E. Cultivation took place for nine days, while the experimental treatment of the follicles started 24 hours from the beginning of the cultivation. Hair follicles were selected for the experiments after 18 h of cultivation. Only follicles showing a good vital stage and a growth of not less than 0.2 mm were considered suitable to be maintained in culture. All experimental groups and the control group were prepared by including 12 follicles, plated in 24 well plates at a density of 3 hair follicles (HFs) per well. […] The growth of the hair follicles was studied by performing image analyses on microphotographs. All hair follicles were photographed at day 5 of culture (day 4 of treatment) and then at day 9 of culture (day 8 of treatment).
# The experiment according to Examples 1 to 3 was terminated after 9 days of cultivation. Subsequently, the hair follicles were subjected to histological analysis by staining with haematossilin and eosin in order to verify the morphological state of the dermopapilla.
# [2] = tested on: Human anagen hair follicles; test: Growth (elongation) of cultured isolated human hair follicles; format: cell-based
# Experimental: as §1
molecule,measurement,setting,value
"C=C1C[C@]23C[C@@]1(O)CC[C@H]2[C@@]12C=C[C@H](O)[C@@](C)(C(=O)O1)[C@H]2[C@@H]3C(=O)O [Gibberellin, Gibberellic acid]",effect on decline of the hair follicles into the catagen phase,"[1]; Examples 13-14, 0.1 and 1 μg/ml, result in words",significantly anticipated the decline into the catagen phase
same,Anagen phase,"[1]; Table 6, Example 13, 0.1 μg/ml",22.2
same,Catagen phase,"[1]; Table 6, Example 13, 0.1 μg/ml",77.8
same,Anagen phase,"[1]; Table 6, Example 14, 1 μg/ml",9.1
same,Catagen phase,"[1]; Table 6, Example 14, 1 μg/ml",90.9
same,inhibition at 1 µg/mL,"[2]; Homo sapiens, Examples 1-3, 1 μg/ml, P<0.01, read-out: inhibitory action on hair growth in comparison with the untreated sample",19%
same,"Growth of hair follicles: Elongation performance, Average","[2]; Table 1, Examples 1-3, 0.01 μg/ml, day 9 of culture",88.2 ± 7.0 percentage of the control group
same,"Growth of hair follicles: Elongation performance, Average","[2]; Table 1, Examples 1-3, 0.1 μg/ml, day 9 of culture",85.6 ± 5.4 percentage of the control group
same,"Growth of hair follicles: Elongation performance, Average","[2]; Table 1, Examples 1-3, 1.0 μg/ml, day 9 of culture",80.6 ± 5.4 percentage of the control group
same,"Growth of hair follicles: Elongation performance, Average","[2]; Table 2, Examples 4-6, 0.01 μg/ml, 9 days of cultivation",81.4 ± 5.9 percentage of the control group
same,"Growth of hair follicles: Elongation performance, Average","[2]; Table 2, Examples 4-6, 0.1 μg/ml, 9 days of cultivation",89.8 ± 8.0 percentage of the control group
same,"Growth of hair follicles: Elongation performance, Average","[2]; Table 2, Examples 4-6, 1.0 μg/ml, 9 days of cultivation",82.7 ± 6.6 percentage of the control group
same,"Growth of hair follicles: Elongation performance, Average","[2]; Table 3, Examples 7-8, 0.1 μg/ml, 9 days of cultivation",76.6 ± 4.3 percentage of the control group
same,"Growth of hair follicles: Elongation performance, Average","[2]; Table 3, Examples 7-8, 1.0 μg/ml, 9 days of cultivation",69.9 ± 3.2 percentage of the control group
same,"Growth of hair follicles: Elongation performance, Average","[2]; Table 4, Examples 9-10, 0.1 μg/ml, 9 days of cultivation",77.7 ± 5.8 percentage of the control group
same,"Growth of hair follicles: Elongation performance, Average","[2]; Table 4, Examples 9-10, 1.0 μg/ml, 9 days of cultivation",72.3 ± 4.9 percentage of the control group
same,"Growth of hair follicles: Elongation performance, Average","[2]; Table 5, Examples 11-12, 0.1 μg/ml, 9 days of cultivation",91.3 ± 4.7 percentage of the control group
same,"Growth of hair follicles: Elongation performance, Average","[2]; Table 5, Examples 11-12, 1.0 μg/ml, 9 days of cultivation",79.9 ± 5.9 percentage of the control group
Gibberellic acid [Gibberellin],change of hair follicle growth in comparison to the control group,"[2]; Examples 7-8, 1 μg/ml, P<0.001",−30.1%
same,change of hair follicle growth in comparison to the control group,"[2]; Examples 9-10, 1 μg/ml, P<0.001",−27.7%
same,change of hair follicle growth in comparison to the control group,"[2]; Examples 11-12, 1 μg/ml, P<0.01",−20%
same,reduction of hair growth in comparison to the control group,"[2]; Examples 11-12, depending on the treatment dosage (0.1-1.0 μg/ml)",up to 20%
